Test results as given in patent publication US5385921A, “Pharmaceutical formulations” (Aktiebolaget Astra, priority 1990, dated 1995).

How the values were obtained:
[1] = tested on: N-methyl-D-aspartate (NMDA) seizures; assay: N-methyl-D-aspartate (NMDA) seizures: tonic convulsions in mice; format: in vivo, male TO mice; conditions: Mus musculus, drug 15 min before NMDA 300 mg/kg i.p., weights refer to the free base, read-out: NMDA seizures ED50 (dose required to decrease the incidence of tonic convulsions by 50%)
Description: (§1) Animals used were male Wistar rats (140-170 g) and male TO mice (18-30 g).
(§2) All drugs were dissolved in isotonic saline. Weights refer to the free base.
Drugs were adminstered 15 min before the NMDA, and data are expressed as the dose required to decrease the incidence of tonic convulsions by 50% (ED50).

[2] = tested on: Pentylenetetrazol (PTZ) seizures; assay: Pentylenetetrazol (PTZ) seizures: seizure threshold in rats; format: in vivo, male Wistar rats; conditions: Rattus norvegicus, 0.25 h, drug 15 min before PTZ infusion into tail vein, weights refer to the free base, read-out: PTZ seizures TI50 (dose required to increase seizure threshold by 50%)
Description: as §1, §2
Seizure threshold was assessed in rats by measurement of the dose of PTZ required to elicit a seizure when infused through a tail vein. PTZ (10 mg/ml) was infused into the tail vein at a rate of […] and the time to the first clonic convulsion measured. Seizure threshold was calculated as described by Green & Murray, J. Pharm. Pharmacol. 1989, 41: 879-880. Drugs were administered 15 min before the PTZ. Data are expressed as the dose required to increase seizure threshold by 50% (TI50).

locomotor activity = assay: Sedation studies: suppression of locomotor activity in mice; format: in vivo, male TO mice; conditions: Mus musculus, recording starts 20 min after administration, 30 min period, weights refer to the free base, read-out: Sedation ED50 (dose required to reduce locomotor activity by 50%)
Description: as §1, §2
The test drug was administered to mice and starting 20 min later locomotor activity was recorded for a 30 min period. Activity was monitored using an infra-red light beam interruption system in cages measuring 40 cm×40 cm. Data are expressed as the dose required to reduce locomotor activity by 50% (ED50).

[3] = tested on: CA1/CA2 hippocampal neurones; assay: Neuroprotection studies: damage to CA1/CA2 hippocampal neurones in gerbils after carotid artery occlusion; format: in vivo, gerbil
Description: as §2
Ischaemia was induced in gerbils, by occlusion of the carotid arteries following the accepted general procedure as described in, for example, EP 230 370 and R. Gill, A. C. Foster and G. N. Woodruff, J. Neuroscience, 1987, 7, 3343-3349.
Ischaemia was induced in the animals by 5 minute occlusion of both carotid arteries. Body temperature was maintained at 37° C. throughout. Restoration of blood flow after occlusion was checked visually and the animals were allowed to survive for 4 days. The extent of neuronal degeneration in the hippocampus was then assessed. The test compounds were adminstered (i.p.) as a single dose 60 minutes following occlusion. No administration was made prior to the occlusion.

Structure (SMILES)	ED50 [1]	ED50 [2]	ED50 (locomotor activity)	% Damage to CA1/CA2 Hippocampal Neurones ([3]; 100 mg/kg i.p. single dose 60 minutes after induction of ischaemia, n=8, assessed after 4 days, untreated (None) 92 ±7)	reduction of damage to the CA1/CA2 hippocampal neurones (in words) ([3]; i.p., single dose 60 minutes following occlusion)
Cc1ncsc1C(O)CCl (centres unmarked) [5-(2-Chloro-1-hydroxyethyl)-4-methylthiazole ethandisulphonate]	40 mg/kg	34 mg/kg	52 mg/kg	–	–
Cc1ncsc1C(O)CCl.Cl (centres unmarked) [5-(2-chloro-1-hydroxyethyl)-4-methylthiazole hydrochloride salt]	–	–	–	64 ±8%	effective in reducing the damage to the CA1/CA2 hippocampal neurones
